According to ChEMBL document CHEMBL1137741, “QSAR models for 2-amino-6-arylsulfonylbenzonitriles and congeners HIV-1 reverse transcriptase inhibitors based on linear and nonlinear regression methods” (Eur J Med Chem, 2009):

Each compound was assayed on Human immunodeficiency virus 1 (assay: Antiviral activity against HIV1). Settings: Human immunodeficiency virus 1, read-out: pIC50 (converted).
Assay type: functional, organism-based

Structure (SMILES) | IC50 [µM]
N#Cc1c(N)cccc1S(=O)(=O)c1ccccc1Br | 5
Cc1cc(C)cc(Sc2cccc(N)c2C#N)c1 | 0.429
Cc1cccc([S+]([O-])c2cccc(N)c2C#N)c1 (stereo not drawn) | 29.2
N#Cc1c(N)cccc1S(=O)(=O)c1cc(Cl)ccc1Cl | 0.3
N#Cc1c(N)cccc1S(=O)(=O)c1ccccc1F | 3
Cc1ccccc1Sc1cccc(N)c1C#N | 16
N#Cc1cccc(Sc2cccc(N)c2C#N)c1 | 1.73
N#Cc1c(N)cccc1S(=O)(=O)c1ccccc1 | 2
N#Cc1c(N)cccc1Sc1ccccc1Br | 30
Cc1cccc(Sc2cccc(N)c2C#N)c1 | 6.09
COc1cccc(Sc2cccc(N)c2C#N)c1 | 6
N#Cc1c(N)cccc1S(=O)(=O)c1ccc(Cl)cc1 | 3
COc1ccccc1S(=O)(=O)c1cccc(N)c1C#N | 0.6
N#Cc1c(N)cccc1[S+]([O-])c1cc(Cl)ccc1Cl (stereo not drawn) | 9.84
COc1ccccc1[S+]([O-])c1cccc(N)c1C#N (stereo not drawn) | 4.8
Cc1ccccc1[S+]([O-])c1cccc(N)c1C#N (stereo not drawn) | 92.9
COc1cccc([S+]([O-])c2cccc(N)c2C#N)c1 (stereo not drawn) | 16
N#Cc1ccc(S(=O)(=O)c2cccc(N)c2C#N)cc1 | 80
N#Cc1ccccc1S(=O)(=O)c1cccc(N)c1C#N | 5.4
N#Cc1c(N)cccc1Sc1cccc(N)c1 | 31.5
N#Cc1c(N)cccc1Sc1ccccc1 | 14.6
N#Cc1ccc(Sc2cccc(N)c2C#N)cc1 | 43.8

Structure (SMILES) | IC50 [µM]
N#Cc1c(N)cccc1Sc1cccc(Br)c1 | 5.11
COc1cc([S+]([O-])c2cccc(N)c2C#N)cc(C(F)(F)F)c1 (stereo not drawn) | 2.07
N#Cc1c(N)cccc1[S+]([O-])c1cccc(C(F)(F)F)c1 (stereo not drawn) | 40
N#Cc1c(N)cccc1Sc1ccccc1Cl | 4.1
N#Cc1c(N)cccc1[S+]([O-])c1ccc(Br)cc1 (stereo not drawn) | 20.2
N#Cc1c(N)cccc1Sc1cccc(Cl)c1 | 7.4
Cc1cc(Cl)cc(Sc2cccc(N)c2C#N)c1 | 1.76
N#Cc1c(N)cccc1[S+]([O-])c1ccccc1Br (stereo not drawn) | 39.2
N#Cc1c(N)cccc1S(=O)(=O)c1cccc(C(F)(F)F)c1 | 3.5
N#Cc1c(N)cccc1[S+]([O-])c1cccc(Br)c1 (stereo not drawn) | 0.08
N#Cc1c(N)cccc1Sc1cccc(C(F)(F)F)c1 | 12.8
Cc1cc(C)cc([S+]([O-])c2cccc(N)c2C#N)c1 (stereo not drawn) | 0.34
COc1ccccc1Sc1cccc(N)c1C#N | 4.29
COc1cc(Sc2cccc(N)c2C#N)cc(C(F)(F)F)c1 | 5.11
N#Cc1ccccc1[S+]([O-])c1cccc(N)c1C#N (stereo not drawn) | 3.9
N#Cc1c(N)cccc1Sc1cccc(F)c1 | 9.79
Cc1ccc([S+]([O-])c2cccc(N)c2C#N)cc1 (stereo not drawn) | 49
Cc1ccccc1S(=O)(=O)c1cccc(N)c1C#N | 2.3
N#Cc1c(N)cccc1S(=O)(=O)c1ccccc1Cl | 4.1
N#Cc1cccc([S+]([O-])c2cccc(N)c2C#N)c1 (stereo not drawn) | 14.2
Cc1cc(Cl)cc([S+]([O-])c2cccc(N)c2C#N)c1 (stereo not drawn) | 0.32
COc1cc(C)cc(Sc2cccc(N)c2C#N)c1 | 2

Second part, the compound after the results:

IC50 [µM] | Structure (SMILES)
0.59 | N#Cc1c(N)cccc1S(=O)(=O)c1cccc(Cl)c1
0.4 | Cc1cccc(S(=O)(=O)c2cccc(N)c2C#N)c1
0.429 | Cc1cc(O)cc(S(=O)(=O)c2cccc(N)c2C#N)c1
0.06 | CCCOc1cc(C)cc(S(=O)(=O)c2cccc(N)c2C#N)c1
0.02 | Cc1cc(Br)cc(S(=O)(=O)c2cccc(N)c2C#N)c1
3 | N#Cc1c(N)cccc1S(=O)(=O)c1cccc(F)c1
2.4 | N#Cc1cccc(S(=O)(=O)c2cccc(N)c2C#N)c1
25 | COc1ccc(S(=O)(=O)c2cccc(N)c2C#N)cc1
0.899 | COc1cccc(S(=O)(=O)c2cccc(N)c2C#N)c1
0.07 | N#Cc1c(N)cccc1S(=O)(=O)c1cc(Cl)cc(Cl)c1
0.01 | Cc1cc(C)cc(S(=O)(=O)c2cccc(N)c2C#N)c1
0.03 | Cc1cc(Cl)cc(S(=O)(=O)c2cccc(N)c2C#N)c1
0.05 | COc1cc(C)cc(S(=O)(=O)c2cccc(N)c2C#N)c1
0.06 | CCOc1cc(C)cc(S(=O)(=O)c2cccc(N)c2C#N)c1
9.51 | Cc1ccc(S(=O)(=O)c2cccc(N)c2C#N)cc1
0.6 | CCCCOc1cc(C)cc(S(=O)(=O)c2cccc(N)c2C#N)c1
0.09 | COc1cc(C(F)(F)F)cc(S(=O)(=O)c2cccc(N)c2C#N)c1
0.539 | N#Cc1c(N)cccc1S(=O)(=O)c1cccc(Br)c1
20 | N#Cc1c(N)cccc1S(=O)(=O)c1ccc(Br)cc1
